Source: PubChem BioAssay AID256 (DTP/NCI, 2004)
“And” between values parts separate entries of the source, which are not always exact repeats. Identical values can stand only once. Toxic doses and inconclusive results are not listed. Rule for the calls: active = survival T/C of 150% or more; inactive = T/C below 125% in these data.

Tested on: CD2F1 mice, L1210 leukemia ip, survival T/C
Assay: NCI In Vivo Anticancer Drug Screen. Data for tumor model L1210 Leukemia (intraperitoneal) in CD2F1 (CDF1) mice
Settings: higher = longer survival
In short: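 Implant tumor; dose compound or vehicle; measure endpoint in both groups; report treated divided by control.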

[1] = endpoint: mean survival time, dose: 100.0 mg/kg/injection, schedule: Q04DX003 (ip), vehicle: saline with Tween-80
[2] = endpoint: mean survival time, dose: 200.0 mg/kg/injection, schedule: Q04DX003 (ip), vehicle: saline with Tween-80
[3] = endpoint: mean survival time, dose: 100.0 mg/kg/injection, schedule: Q04DX003 (ip), vehicle: saline
[4] = endpoint: mean survival time, dose: 200.0 mg/kg/injection, schedule: Q04DX003 (ip), vehicle: saline
[5] = endpoint: mean survival time, dose: 400.0 mg/kg/injection, schedule: Q04DX003 (ip), vehicle: saline
[6] = endpoint: mean survival time, dose: 100.0 mg/kg/injection, schedule: Q01DX009 (ip), vehicle: saline with Tween-80
[7] = endpoint: mean survival time, dose: 100.0 mg/kg/injection, schedule: Q01DX001 (ip), vehicle: saline with Tween-80
[8] = endpoint: mean survival time, dose: 200.0 mg/kg/injection, schedule: Q01DX001 (ip), vehicle: saline with Tween-80
[9] = endpoint: mean survival time, dose: 400.0 mg/kg/injection, schedule: Q01DX001 (ip), vehicle: saline with Tween-80
[10] = endpoint: mean survival time, dose: 200.0 mg/kg/injection, schedule: Q01DX009 (ip), vehicle: saline with Tween-80
[11] = endpoint: mean survival time, dose: 400.0 mg/kg/injection, schedule: Q01DX009 (ip), vehicle: saline with Tween-80

Measured: T/C

COC(=O)c1c(CC#N)ncn1C1OC(COC(C)=O)C(OC(C)=O)C1OC(C)=O (stereo not given)
inactive: endpoint: median survival time, dose: 8.25 mg/kg/injection, schedule: Q01DX005 (ip), vehicle: water 104 % of control | endpoint: median survival time, dose: 11.25 mg/kg/injection, schedule: Q01DX005 (ip), vehicle: water 100 % of control | endpoint: median survival time, dose: 16.5 mg/kg/injection, schedule: Q01DX005 (ip), vehicle: water 101 % of control | endpoint: median survival time, dose: 22.5 mg/kg/injection, schedule: Q01DX005 (ip), vehicle: water 98 % of control | endpoint: median survival time, dose: 33.0 mg/kg/injection, schedule: Q01DX005 (ip), vehicle: water 101 % of control | endpoint: median survival time, dose: 45.0 mg/kg/injection, schedule: Q01DX005 (ip), vehicle: water 101 % of control | endpoint: median survival time, dose: 66.0 mg/kg/injection, schedule: Q01DX005 (ip), vehicle: water 100 % of control | endpoint: median survival time, dose: 90.0 mg/kg/injection, schedule: Q01DX005 (ip), vehicle: water 100 % of control | endpoint: median survival time, dose: 132.0 mg/kg/injection, schedule: Q01DX005 (ip), vehicle: water 101 % of control | endpoint: median survival time, dose: 180.0 mg/kg/injection, schedule: Q01DX005 (ip), vehicle: water 100 % of control

CCN(CC)Cc1cc(O)ccc1NCCCNc1ccnc2cc(Cl)ccc12
inactive: [1] 96 % of control

NCc1c(Cl)c(Cl)c(Cl)c(CN)c1Cl
inactive: endpoint: mean survival time, dose: 50.0 mg/kg/injection, schedule: Q04DX003 (ip), vehicle: saline with Tween-80 100 % of control | [1] 100 % of control | [2] 98 % of control

ClC1(Cl)OC(Cl)(Cl)C(Cl)(Cl)OC1(Cl)Cl
inactive: endpoint: mean survival time, dose: 50.0 mg/kg/injection, schedule: Q04DX003 (ip), vehicle: other 95 % of control | endpoint: mean survival time, dose: 100.0 mg/kg/injection, schedule: Q04DX003 (ip), vehicle: other 91 % of control | endpoint: mean survival time, dose: 200.0 mg/kg/injection, schedule: Q04DX003 (ip), vehicle: other 97 % of control

c1nc[nH]n1
inactive: endpoint: mean survival time, dose: 100.0 mg/kg/injection, schedule: Q01DX009 (ip), vehicle: saline 98 % of control | [3] 95 % of control | endpoint: mean survival time, dose: 200.0 mg/kg/injection, schedule: Q01DX009 (ip), vehicle: saline 98 % of control | [4] 97 % of control | endpoint: mean survival time, dose: 400.0 mg/kg/injection, schedule: Q01DX009 (ip), vehicle: saline 93 % of control | [5] 100 % of control

CCOC(=O)c1[nH]cnc1/N=N/N(C)C
inactive: endpoint: mean survival time, dose: 16.5 mg/kg/injection, schedule: Q01DX009 (ip), vehicle: saline with Tween-80 120 % of control | [6] 109 % of control | [1] 105 % of control

FC(F)Cc1ccccc1
inactive: [7] 100 % of control | [8] 94 % of control | [9] 100 % of control

COC1(c2ccccc2)c2ccccc2C(OC)(c2ccccc2)c2cc(Cl)ccc21 (stereo not given)
inactive: endpoint: mean survival time, dose: 100.0 mg/kg/injection, schedule: Q01DX001 (ip), vehicle: Klucel (hydroxypropylcellulose) (HPC) 96 % of control | endpoint: mean survival time, dose: 200.0 mg/kg/injection, schedule: Q01DX001 (ip), vehicle: Klucel (hydroxypropylcellulose) (HPC) 89 % of control

Nc1cc2c(cc1Br)-c1c(C(=O)O)cccc1C2O (stereo not given)
inactive: endpoint: median survival time, dose: 50.0 mg/kg/injection, schedule: Q01DX005 (ip), vehicle: sodium bicarbonate 100 % of control | endpoint: median survival time, dose: 100.0 mg/kg/injection, schedule: Q01DX005 (ip), vehicle: sodium bicarbonate 101 % of control | endpoint: median survival time, dose: 200.0 mg/kg/injection, schedule: Q01DX005 (ip), vehicle: sodium bicarbonate 113 % of control | endpoint: median survival time, dose: 400.0 mg/kg/injection, schedule: Q01DX005 (ip), vehicle: sodium bicarbonate 122 % of control | endpoint: median survival time, dose: 800.0 mg/kg/injection, schedule: Q01DX005 (ip), vehicle: sodium bicarbonate 122 % of control

Cc1nc(N)[nH]c(=O)c1CCCN
inactive: [3] 95 % of control | [4] 98 % of control | [5] 95 % of control

Cc1ccc([N+](=O)[O-])cc1NC(=O)COc1cc(Cl)c(Cl)cc1Cl
inactive: [1] 110 % of control | [2] 90 % of control | endpoint: mean survival time, dose: 400.0 mg/kg/injection, schedule: Q04DX003 (ip), vehicle: saline with Tween-80 90 % of control

CSC1=NCCN1
inactive: [3] 97 % of control | [4] 97 % of control | [5] 91 % of control

OC(COc1ccc(Cl)cc1)COc1ccc(Cl)cc1
inactive: endpoint: mean survival time, dose: 25.0 mg/kg/injection, schedule: Q01DX001 (ip), vehicle: saline with Tween-80 94 % of control | endpoint: mean survival time, dose: 50.0 mg/kg/injection, schedule: Q01DX001 (ip), vehicle: saline with Tween-80 94 % of control | [7] 105 % of control

O=c1cc(NCCCCCc2ccccc2)[nH]c(=O)[nH]1
inactive: endpoint: mean survival time, dose: 37.5 mg/kg/injection, schedule: Q01DX001 (ip), vehicle: saline with Tween-80 96 % of control | endpoint: mean survival time, dose: 75.0 mg/kg/injection, schedule: Q01DX001 (ip), vehicle: saline with Tween-80 100 % of control | endpoint: mean survival time, dose: 150.0 mg/kg/injection, schedule: Q01DX001 (ip), vehicle: saline with Tween-80 96 % of control

CC(C)(C)OOC(=O)c1ccc([N+](=O)[O-])cc1
inactive: [6] 101 % of control | [10] 97 % of control | [11] 101 % of control

C[n+]1cccc(C(=O)c2ccccc2)c1
inactive: endpoint: mean survival time, dose: 75.0 mg/kg/injection, schedule: Q01DX001 (ip), vehicle: other 100 % of control

O=C(OCC1OC(n2cnc3c(=O)[nH][nH]c(=O)c32)C(OC(=O)c2ccccc2)C1OC(=O)c1ccccc1)c1ccccc1 (stereo not given)
inactive: endpoint: median survival time, dose: 8.25 mg/kg/injection, schedule: Q01DX005 (ip), vehicle: Klucel (hydroxypropylcellulose) (HPC) 104 % of control | endpoint: median survival time, dose: 16.5 mg/kg/injection, schedule: Q01DX005 (ip), vehicle: Klucel (hydroxypropylcellulose) (HPC) 98 % of control | endpoint: median survival time, dose: 33.0 mg/kg/injection, schedule: Q01DX005 (ip), vehicle: Klucel (hydroxypropylcellulose) (HPC) 97 % of control | endpoint: median survival time, dose: 66.0 mg/kg/injection, schedule: Q01DX005 (ip), vehicle: Klucel (hydroxypropylcellulose) (HPC) 101 % of control | endpoint: median survival time, dose: 132.0 mg/kg/injection, schedule: Q01DX005 (ip), vehicle: Klucel (hydroxypropylcellulose) (HPC) 102 % of control

CC(=O)C(=O)Sc1ccccc1
inactive: endpoint: mean survival time, dose: 12.5 mg/kg/injection, schedule: Q04DX002 (ip), vehicle: Klucel (hydroxypropylcellulose) (HPC) 94 % of control | endpoint: mean survival time, dose: 25.0 mg/kg/injection, schedule: Q04DX002 (ip), vehicle: Klucel (hydroxypropylcellulose) (HPC) 105 % of control | endpoint: mean survival time, dose: 50.0 mg/kg/injection, schedule: Q04DX002 (ip), vehicle: Klucel (hydroxypropylcellulose) (HPC) 90 % of control

ON=C1c2c(ccc3ccccc23)-c2ccc3ccccc3c21
inactive: [7] 95 % of control | [6] 98 % of control | [8] 96 % of control | [10] 95 % of control | [9] 102 % of control | [11] 93 % of control

[Cl][Sn]([c]1ccccc1)[c]1ccccc1
inactive: endpoint: mean survival time, dose: 6.25 mg/kg/injection, schedule: Q01DX009 (ip), vehicle: saline 97 % of control | endpoint: mean survival time, dose: 12.5 mg/kg/injection, schedule: Q01DX009 (ip), vehicle: saline with Tween-80 96 % of control | endpoint: mean survival time, dose: 25.0 mg/kg/injection, schedule: Q01DX009 (ip), vehicle: saline with Tween-80 106 % of control | endpoint: mean survival time, dose: 25.0 mg/kg/injection, schedule: Q01DX009 (ip), vehicle: saline 106 % of control | endpoint: mean survival time, dose: 50.0 mg/kg/injection, schedule: Q01DX009 (ip), vehicle: saline 94 % of control

COc1ccc2c(c1)CNC1c3cc(OC)c(O)cc3CC21 (stereo not given)
inactive: endpoint: mean survival time, dose: 66.0 mg/kg/injection, schedule: Q04DX003 (ip), vehicle: saline with Tween-80 107 % of control

CC(O)C1OC(n2cnc3c(=S)nc[nH]c32)C(O)C1O (stereo not given)
inactive: endpoint: median survival time, dose: 12.5 mg/kg/injection, schedule: Q01DX005 (ip), vehicle: distilled water + Tween-80 119 % of control and 107 % of control | endpoint: median survival time, dose: 25.0 mg/kg/injection, schedule: Q01DX005 (ip), vehicle: distilled water + Tween-80 116 % of control and 124 % of control

CCCCCCCCCCCCCCCCOS(=O)(=O)O
inactive: endpoint: mean survival time, dose: 37.5 mg/kg/injection, schedule: Q01DX009 (ip), vehicle: saline 98 % of control | endpoint: mean survival time, dose: 75.0 mg/kg/injection, schedule: Q01DX009 (ip), vehicle: saline 97 % of control | endpoint: mean survival time, dose: 150.0 mg/kg/injection, schedule: Q01DX009 (ip), vehicle: saline 98 % of control
